Laboratory results published in the supplement of paper PMC10307832.

Columns and labels:
Assay in all cases: relative viability (nuclei count vs DMSO), 5 days (fraction); higher = more cells survive
[1] = test system: ABC-1
Summary of the method: (§1)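 For relative viability, nuclei counts in treated wells were divided by those in vehicle wells. Lung cancer cell lines had been pin-tool dosed in 1536-well plates the day after seeding and cultured for 5 days, then fixed and stained in one step (final 0.05% Triton X-100, 1% formaldehyde, 1 ug/ml Hoechst) and imaged at 4×. Doses were one drug alone or a fixed anchor-drug dose plus five library-drug doses (not always all listed) in √10 steps, and values are duplicate-plate medians.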

[2] = test system: COR-L23
Summary of the method: as §1

[3] = test system: EMC-BAC-2
Summary of the method: as §1

[4] = test system: HARA
Summary of the method: as §1

[5] = test system: HCC-15
Summary of the method: as §1

[6] = test system: HCC-366
Summary of the method: as §1

[7] = test system: HCC-78
Summary of the method: as §1

[8] = test system: HOP-62
Summary of the method: as §1

[9] = test system: LC-2-ad
Summary of the method: as §1

[10] = test system: NCI-H1395
Summary of the method: as §1

[11] = test system: NCI-H1793
Summary of the method: as §1

[12] = test system: NCI-H1944
Summary of the method: as §1

[13] = test system: NCI-H1993
Summary of the method: as §1

[14] = test system: NCI-H2023
Summary of the method: as §1

[15] = test system: NCI-H2126
Summary of the method: as §1

[16] = test system: NCI-H2228
Summary of the method: as §1

[17] = test system: NCI-H23
Summary of the method: as §1

[18] = test system: NCI-H2405
Summary of the method: as §1

[19] = test system: NCI-H358
Summary of the method: as §1

[20] = test system: NCI-H838
Summary of the method: as §1

[21] = test system: SK-LU-1
Summary of the method: as §1

In the case of O=c1cc(-c2cccc3c2Sc2ccccc2S3)oc(N2CCOCC2)c1 + CS(=O)(=O)CCNCc1ccc(-c2ccc3ncnc(Nc4ccc(OCc5cccc(F)c5)c(Cl)c4)c3c2)o1 [Lapatinib] (partner 2 µM), the relative viability ([1]; first compound 0.08 µM) is reported as 1.04, the relative viability ([1]; first compound 0.253 µM) is reported as 1.2 and the relative viability ([1]; first compound 0.8 µM) is reported as 1.28. It also gave a relative viability ([1]; first compound 2.53 µM) of 0.991, a relative viability ([1]; first compound 8 µM) of 1.41 and a relative viability ([2]; first compound 0.08 µM) of 1.1. The relative viability ([2]; first compound 0.253 µM) was 1.67, the relative viability ([2]; first compound 0.8 µM) was 0.962 and the relative viability ([2]; first compound 2.53 µM) was 0.836. The relative viability ([2]; first compound 8 µM) was 1.09, the relative viability ([3]; first compound 0.08 µM) was 0.873 and the relative viability ([3]; first compound 0.253 µM) was 0.987. It also gave a relative viability ([3]; first compound 0.8 µM) of 0.887, a relative viability ([3]; first compound 2.53 µM) of 0.865 and a relative viability ([3]; first compound 8 µM) of 0.929. It also gave a relative viability ([4]; first compound 0.08 µM) of 0.662, a relative viability ([4]; first compound 0.253 µM) of 0.751 and a relative viability ([4]; first compound 0.8 µM) of 0.562. It also gave a relative viability ([4]; first compound 2.53 µM) of 0.632, a relative viability ([4]; first compound 8 µM) of 0.719 and a relative viability ([5]; first compound 0.08 µM) of 0.885. It also gave a relative viability ([5]; first compound 0.253 µM) of 1.02, a relative viability ([5]; first compound 0.8 µM) of 0.873 and a relative viability ([5]; first compound 2.53 µM) of 0.82. It also gave a relative viability ([5]; first compound 8 µM) of 0.988, a relative viability ([6]; first compound 0.08 µM) of 1.12 and a relative viability ([6]; first compound 0.253 µM) of 1.71. The relative viability ([6]; first compound 0.8 µM) was 1.12, the relative viability ([6]; first compound 2.53 µM) was 0.995 and the relative viability ([6]; first compound 8 µM) was 1.56. It also gave a relative viability ([7]; first compound 0.08 µM) of 0.873, a relative viability ([7]; first compound 0.253 µM) of 0.822 and a relative viability ([7]; first compound 0.8 µM) of 0.718. For the same compound, the relative viability ([7]; first compound 2.53 µM) was 0.735, the relative viability ([7]; first compound 8 µM) was 0.901 and the relative viability ([8]; first compound 0.08 µM) was 0.829. The relative viability ([8]; first compound 0.253 µM) was 1.08, the relative viability ([8]; first compound 0.8 µM) was 1.13 and the relative viability ([8]; first compound 2.53 µM) was 0.727. The relative viability ([8]; first compound 8 µM) was 1.07, the relative viability ([9]; first compound 0.08 µM) was 0.963 and the relative viability ([9]; first compound 0.253 µM) was 1.04. For the same compound, the relative viability ([9]; first compound 0.8 µM) was 1.06, the relative viability ([9]; first compound 2.53 µM) was 0.921 and the relative viability ([9]; first compound 8 µM) was 0.956. For the same compound, the relative viability ([10]; first compound 0.08 µM) was 0.971, the relative viability ([10]; first compound 0.253 µM) was 1.04 and the relative viability ([10]; first compound 0.8 µM) was 1.02. It also gave a relative viability ([10]; first compound 2.53 µM) of 1.16, a relative viability ([10]; first compound 8 µM) of 0.949 and a relative viability ([11]; first compound 0.08 µM) of 0.641. It also gave a relative viability ([11]; first compound 0.253 µM) of 1.16, a relative viability ([11]; first compound 0.8 µM) of 0.643 and a relative viability ([11]; first compound 2.53 µM) of 0.837. It also gave a relative viability ([11]; first compound 8 µM) of 0.752, a relative viability ([12]; first compound 0.08 µM) of 0.846 and a relative viability ([12]; first compound 0.253 µM) of 1.07. For the same compound, the relative viability ([12]; first compound 0.8 µM) was 0.733, the relative viability ([12]; first compound 8 µM) was 0.998 and the relative viability ([13]; first compound 0.08 µM) was 0.773. It also gave a relative viability ([13]; first compound 0.253 µM) of 0.802, a relative viability ([13]; first compound 0.8 µM) of 0.849 and a relative viability ([13]; first compound 2.53 µM) of 0.875. For the same compound, the relative viability ([13]; first compound 8 µM) was 0.844, the relative viability ([14]; first compound 0.08 µM) was 0.767 and the relative viability ([14]; first compound 0.253 µM) was 1.03. For the same compound, the relative viability ([14]; first compound 0.8 µM) was 0.748, the relative viability ([14]; first compound 2.53 µM) was 0.571 and the relative viability ([14]; first compound 8 µM) was 0.94. For the same compound, the relative viability ([15]; first compound 0.08 µM) was 0.715, the relative viability ([15]; first compound 0.253 µM) was 0.801 and the relative viability ([15]; first compound 0.8 µM) was 0.679. For the same compound, the relative viability ([15]; first compound 2.53 µM) was 0.679, the relative viability ([15]; first compound 8 µM) was 0.796 and the relative viability ([16]; first compound 0.08 µM) was 1.02. The relative viability ([16]; first compound 0.253 µM) was 1.5, the relative viability ([16]; first compound 0.8 µM) was 0.912 and the relative viability ([16]; first compound 2.53 µM) was 0.891. For the same compound, the relative viability ([16]; first compound 8 µM) was 1.1, the relative viability ([17]; first compound 0.08 µM) was 1.1 and the relative viability ([17]; first compound 0.253 µM) was 1.34. The relative viability ([17]; first compound 0.8 µM) was 1.14, the relative viability ([17]; first compound 2.53 µM) was 0.868 and the relative viability ([17]; first compound 8 µM) was 1.17. It also gave a relative viability ([18]; first compound 0.08 µM) of 0.928, a relative viability ([18]; first compound 0.253 µM) of 1.1 and a relative viability ([18]; first compound 0.8 µM) of 1.02. The relative viability ([18]; first compound 2.53 µM) was 0.937, the relative viability ([18]; first compound 8 µM) was 1.02 and the relative viability ([19]; first compound 0.08 µM) was 0.407. It also gave a relative viability ([19]; first compound 0.253 µM) of 0.392, a relative viability ([19]; first compound 0.8 µM) of 0.42 and a relative viability ([19]; first compound 2.53 µM) of 0.424. The relative viability ([19]; first compound 8 µM) was 0.467, the relative viability ([20]; first compound 0.08 µM) was 0.973 and the relative viability ([20]; first compound 0.253 µM) was 1.36. For the same compound, the relative viability ([20]; first compound 0.8 µM) was 0.844, the relative viability ([20]; first compound 2.53 µM) was 0.969 and the relative viability ([20]; first compound 8 µM) was 0.953. For the same compound, the relative viability ([21]; first compound 0.08 µM) was 1.02, the relative viability ([21]; first compound 0.253 µM) was 0.858 and the relative viability ([21]; first compound 0.8 µM) was 0.968. It also gave a relative viability ([21]; first compound 2.53 µM) of 0.817 and a relative viability ([21]; first compound 8 µM) of 0.836.
